Source: patent publication US20140315889A1, “HYDROXAMATE DERIVATIVES FOR HDAC INHIBITOR, AND THE PHARMACEUTICAL COMPOSITION COMPRISING THEREOF” (CHONG KUN DANG PHARMACEUTICAL CORP., priority 2011, published 2014)

Legend:
Human recombinant HDAC1 = molecular target: T1, Human recombinant HDAC1 (Homo sapiens, UniProt Q13547); assay: HDAC enzyme activity test, HDAC1; format: biochemical; conditions: Table 12; read-out: Inhibition ability (IC50) HDAC1
T1 construct: purchased Enzo Life Science Co. (named for the kit; assigned to the enzyme from the BML- catalogue prefix) BML-SE456
T1 sequence (Q13547 whole entry): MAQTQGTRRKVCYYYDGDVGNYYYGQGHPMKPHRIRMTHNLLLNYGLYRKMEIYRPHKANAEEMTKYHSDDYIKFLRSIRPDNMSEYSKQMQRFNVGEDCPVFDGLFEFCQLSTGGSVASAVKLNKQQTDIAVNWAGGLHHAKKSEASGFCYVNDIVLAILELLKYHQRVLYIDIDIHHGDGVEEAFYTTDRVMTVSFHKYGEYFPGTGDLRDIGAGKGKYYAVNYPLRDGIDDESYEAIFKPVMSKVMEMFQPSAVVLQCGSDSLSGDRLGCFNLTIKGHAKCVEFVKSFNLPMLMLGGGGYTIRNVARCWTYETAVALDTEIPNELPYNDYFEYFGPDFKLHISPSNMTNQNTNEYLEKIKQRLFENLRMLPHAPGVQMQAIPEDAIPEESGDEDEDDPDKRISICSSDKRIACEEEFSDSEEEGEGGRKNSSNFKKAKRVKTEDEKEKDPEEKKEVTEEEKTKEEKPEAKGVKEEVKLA
Protocol: (§1) Then, 0.3 μg of enzyme and 10 μM of substrate per well were added, reacted at 30° C. for 60 minutes. Thereto, Fluor de Lys® Developer II (BML-KI176) was added and reacted for 30 minutes. […] From the data, the respective IC50 were calculated by GraphPad Prism 4.0 program.

human recombinant HDAC6 = molecular target: T2, human recombinant HDAC6 (Homo sapiens, UniProt Q9UBN7); assay: HDAC enzyme activity test, HDAC6; format: biochemical; conditions: Table 12; for Selectivity for HDAC6, HD1/HD6: ratio HDAC1 IC50 / HDAC6 IC50; for IC50: read-out: Inhibition ability (IC50) HDAC6
T2 construct: purchased Calibiochem Co. (so in the source) 382180
T2 sequence (Q9UBN7 1-1215): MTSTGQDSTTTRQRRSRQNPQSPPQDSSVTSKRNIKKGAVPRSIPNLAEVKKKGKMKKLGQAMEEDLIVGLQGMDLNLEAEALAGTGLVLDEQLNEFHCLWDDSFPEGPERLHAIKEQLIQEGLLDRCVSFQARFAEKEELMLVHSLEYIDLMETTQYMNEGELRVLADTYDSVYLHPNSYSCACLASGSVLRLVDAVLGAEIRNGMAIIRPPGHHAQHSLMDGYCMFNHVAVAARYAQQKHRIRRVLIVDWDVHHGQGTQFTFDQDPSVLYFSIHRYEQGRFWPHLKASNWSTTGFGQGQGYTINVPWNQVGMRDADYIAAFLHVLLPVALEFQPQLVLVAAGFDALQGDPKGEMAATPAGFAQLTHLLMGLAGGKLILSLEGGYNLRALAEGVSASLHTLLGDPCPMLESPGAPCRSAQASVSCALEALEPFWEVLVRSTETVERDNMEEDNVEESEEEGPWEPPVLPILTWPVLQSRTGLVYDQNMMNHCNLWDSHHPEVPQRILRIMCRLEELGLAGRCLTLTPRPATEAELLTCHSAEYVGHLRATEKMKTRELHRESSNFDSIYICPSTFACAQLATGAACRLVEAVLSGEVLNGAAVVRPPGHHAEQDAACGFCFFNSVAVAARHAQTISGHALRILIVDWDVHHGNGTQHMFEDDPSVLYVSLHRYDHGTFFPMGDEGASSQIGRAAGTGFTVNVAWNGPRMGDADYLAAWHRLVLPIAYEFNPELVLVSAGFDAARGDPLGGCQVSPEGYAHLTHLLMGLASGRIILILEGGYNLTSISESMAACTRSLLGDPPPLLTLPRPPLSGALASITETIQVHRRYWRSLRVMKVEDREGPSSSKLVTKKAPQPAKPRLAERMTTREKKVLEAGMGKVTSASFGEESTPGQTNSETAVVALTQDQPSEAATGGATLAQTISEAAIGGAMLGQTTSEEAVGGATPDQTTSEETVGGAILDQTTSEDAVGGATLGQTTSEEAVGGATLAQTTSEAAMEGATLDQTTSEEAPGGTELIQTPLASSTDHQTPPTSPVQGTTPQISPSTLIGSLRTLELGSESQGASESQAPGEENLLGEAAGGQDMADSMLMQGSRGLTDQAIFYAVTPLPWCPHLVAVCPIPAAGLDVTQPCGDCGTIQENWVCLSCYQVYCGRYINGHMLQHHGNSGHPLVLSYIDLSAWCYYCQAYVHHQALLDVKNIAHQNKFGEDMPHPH
Protocol: as §1

| SMILES | IC50 (Human recombinant HDAC1) | Selectivity for HDAC6, HD1/HD6 (human recombinant HDAC6) | IC50 (human recombinant HDAC6) |
| --- | --- | --- | --- |
| CC(C)(O)CN1CCN(CC2CCc3c(c4cc(F)ccc4n3Cc3ccc(C(=O)NO)cc3)C2=O)CC1 (stereo not drawn) [Compound 191, 4-((6-fluoro-3-((4-(2-hydroxy-2-methylpropyl)piperazin-1-yl)methyl)-4-oxo-1,2,3,4-tetrahydrocarbazol-9-yl)methyl)-N-hydroxybenzamide] | 8280 nM | 1115.6 | 7.4 nM |
| CC1(C)CC(=O)c2c(n(CCCCCC(=O)NO)c3ccc(F)c(F)c23)C1 [Compound 74, 6-(5,6-difluoro-2,2-dimethyl-4-oxo-1,2,3,4-tetrahydrocarbazol-9-yl)-N-hydroxyhexanamide] | 4720 nM | 33.3 | 141 nM |
| CC1(C)CC(=O)c2c(n(Cc3ccc(C(=O)NO)cc3)c3c(Cl)ccc(Cl)c23)C1 [Compound 49, 4-((1,4-dichloro-7,7-dimethyl-5-oxo-5,6,7,8-tetrahydrocarbazol-9-yl)methyl)-N-hydroxybenzamide] | 13500 nM | 144.8 | 93 nM |
| O=C(NO)c1ccc(Cn2c3c(c4cc(F)ccc42)C(=O)NCC3)cc1 [Compound 306, 4-((8-fluoro-1-oxo-1,2,3,4-tetrahydropyrido[4,3-b]indol-5-yl)methyl)-N-hydroxybenzamide] | 3230 nM | 1041.9 | 3.1 nM |
| COCCN1CCN(CC2CCc3c(c4ccccc4n3Cc3ccc(C(=O)NO)cc3)C2=O)CC1 (stereo not drawn) [Compound 114] | 5790 nM | 327.1 | 17.7 nM |
| CC1(C)CC(=O)c2c(n(Cc3ccc(C(=O)NO)cc3)c3cc(F)c(F)cc23)C1 [Compound 71, 4-((6,7-difluoro-2,2-dimethyl-4-oxo-1,2,3,4-tetrahydrocarbazol-9-yl)methyl)-N-hydroxybenzamide] | 4990 nM | 37 | 134 nM |
| O=C(CCCCCn1c2c(c3cc(F)ccc31)C(=O)C(CN1CCN(c3ccc(F)cc3)CC1)CC2)NO (stereo not drawn) [Compound 322, 6-(6-fluoro-3-((4-(4-fluorophenyl)piperazin-1-yl)methyl)-4-oxo-1,2,3,4-tetrahydrocarbazol-9-yl)-N-hydroxyhexanamide] | 7440 nM | 40.8 | 182 nM |
| COCCN1CCN(CC2CCc3c(c4cc(F)ccc4n3Cc3ccc(C(=O)NO)cc3)C2=O)CC1 (stereo not drawn) [Compound 284, 4-((6-fluoro-3-((4-(2-methoxyethyl)piperazin-1-yl)methyl)-4-oxo-1,2,3,4-tetrahydrocarbazol-9-yl)methyl)-N-hydroxybenzamide] | 10700 nM | 1435.7 | 7.47 nM |
| CC1(C)CC(=O)C2c3c(F)cccc3N(CCCCCC(=O)NO)C2C1 (stereo not drawn) [Compound 60, 6-(5-fluoro-2,2-dimethyl-4-oxo-2,3,4,4a-tetrahydro-1H-carbazol-9(9aH)-yl)-N-hydroxyhexanamide] | 9180 nM | 127.4 | 72 nM |
| CCCCN1CCN(CC2CCc3c(c4ccccc4n3CCCCCC(=O)NO)C2=O)CC1 (stereo not drawn) [Compound 208, 6-(3-((4-butylpiperazin-1-yl)methyl)-4-oxo-1,2,3,4-tetrahydrocarbazol-9-yl)-N-hydroxyhexanamide] | 284 nM | 152.8 | 1.9 nM |
| CC1(C)Cc2c(c3ccccc3n2Cc2ccc(C(=O)NO)cc2)C(=O)C1CN1CCOCC1 (stereo not drawn) [Compound 122, 4-((2,2-dimethyl-3-(morpholinomethyl)-4-oxo-1,2,3,4-tetrahydrocarbazol-9-yl)methyl)-N-hydroxybenzamide] | 6270 nM | 153 | 41 nM |
| Cc1nccn1CC1CCc2c(c3ccccc3n2CCCCCC(=O)NO)C1=O (stereo not drawn) [Compound 194, N-hydroxy-6-(3-((2-methyl-1H-imidazol-1-yl)methyl)-4-oxo-1,2,3,4-tetrahydrocarbazol-9-yl)hexanamide] | 3080 nM | 131.3 | 23.5 nM |
| CC1(C)CC(=O)c2c(n(CCCCCC(=O)NO)c3ccccc23)C1 [Compound 18, 6-(2,2-dimethyl-4-oxo-1,2,3,4-tetrahydrocarbazol-9-yl)-N-hydroxyhexanamide] | 1320 nM | 18.5 | 71.4 nM |
| CCCCN1CCN(CC2CCc3c(c4cc(F)ccc4n3CCCCCC(=O)NO)C2=O)CC1 (stereo not drawn) [Compound 326, 6-(3-((4-butylpiperazin-1-yl)methyl)-6-fluoro-4-oxo-1,2,3,4-tetrahydrocarbazol-9-yl)-N-hydroxyhexanamide] | 10100 nM | 103.3 | 97.6 nM |
| CCCCN1CCN(CC2CCc3c(c4cc(F)ccc4n3Cc3ccc(C(=O)NO)cc3)C2=O)CC1 (stereo not drawn) [Compound 190, 4-((3-((4-butylpiperazin-1-yl)methyl)-6-fluoro-4-oxo-1,2,3,4-tetrahydrocarbazol-9-yl)methyl)-N-hydroxybenzamide] | 2250 nM | 385.1 | 5.8 nM |
| Cc1c2c(n(CCCCCC(=O)NO)c1C)CCCC2=O [Compound 235, 6-(2,3-dimethyl-4-oxo-4,5,6,7-tetrahydroindol-1-yl)-N-hydroxyhexanamide] | 1310 nM | 34.9 | 37.5 nM |
| CC1(C)CC(=O)c2c(n(Cc3ccc(C(=O)NO)cc3)c3ccc(F)cc23)C1 [Compound 57, 4-((6-fluoro-2,2-dimethyl-4-oxo-1,2,3,4-tetrahydrocarbazol-9-yl)methyl)-N-hydroxybenzamide] | 3770 nM | 168.3 | 22.4 nM |
| CC1(C)CC(=O)c2c(n(CCCCCCC(=O)NO)c3ccc(Br)cc23)C1 [Compound 50, 7-(6-bromo-2,2-dimethyl-4-oxo-1,2,3,4-tetrahydrocarbazol-9-yl)-N-hydroxyheptanamide] | 158 nM | 17.7 | 8.95 nM |
| CC1(C)Cc2c(c3cc(F)ccc3n2Cc2ccc(C(=O)NO)cc2)C(=O)C1CN1CCOCC1 (stereo not drawn) [Compound 207, 4-((6-fluoro-2,2-dimethyl-3-(morpholinomethyl)-4-oxo-1,2,3,4-tetrahydrocarbazol-9-yl)methyl)-N-hydroxybenzamide] | 1820 nM | 41.5 | 43.9 nM |
| Cc1nccn1CC1C(=O)c2c(n(Cc3ccc(C(=O)NO)cc3)c3ccccc23)CC1(C)C (stereo not drawn) [Compound 126, 4-((2,2-dimethyl-3-((2-methyl-1H-imidazol-1-yl)methyl)-4-oxo-1,2,3,4-tetrahydrocarbazol-9-yl)methyl)-N-hydroxybenzamide] | 5800 nM | 163.3 | 35.5 nM |
| CC1(C)CC(=O)c2c(n(CCCCCCC(=O)NO)c3ccc(F)cc23)C1 [Compound 56, 7-(6-fluoro-2,2-dimethyl-4-oxo-1,2,3,4-tetrahydrocarbazol-9-yl)-N-hydroxyheptanamide] | 242 nM | 58.5 | 4.13 nM |
| CC1(C)CC(=O)c2c(n(Cc3ccc(C(=O)NO)cc3)c3cc(Br)ccc23)C1 [Compound 54, 4-((7-bromo-2,2-dimethyl-4-oxo-1,2,3,4-tetrahydrocarbazol-9-yl)methyl)-N-hydroxybenzamide] | 1470 nM | 24.7 | 59.5 nM |
| CS(=O)(=O)N1CCN(CC2CCc3c(c4ccccc4n3Cc3ccc(C(=O)NO)cc3)C2=O)CC1 (stereo not drawn) [Compound 130, N-hydroxy-4-((3-((4-(methylsulfonyl)piperazin-1-yl)methyl)-4-oxo-1,2,3,4-tetrahydrocarbazol-9-yl)methyl)benzamide] | 2640 nM | 564.9 | 4.7 nM |
